Test results: patent US10933114B2, “Nutritional supplements containing a peptide component and uses thereof” (Mead Johnson Nutrition Company, priority 2014, dated 2021)

Legend:
Type in all cases: in vivo
LDLr knockout mice [1] = test: Fasting blood glucose, plasma insulin and HOMA-IR (Examples 1 and 2)
Protocol: (§1) At t=0 mice were matched into experimental groups based on blood glucose (primary matching parameter) and body weight (secondary matching parameter). The control group received a lard based high fat diet (HFD 45 kcal % from lard; diet D12451 Research Diets, New Brunswick, USA) containing 23.7% w/w protein, 41.4% w/w carbohydrates and 23.6% w/w fat.
Blood samples were takes in week 0, 3, 6, 9, 15 and 21 after 5 hours of fasting. Blood glucose was measured using hand-held glucometer immediately. Plasma cholesterol and plasma triglyceride levels were assayed immediately in fresh EDTA-plasma. The remainder of the plasma was stored at −80° C. for analysis of insulin and ALAT, and for possible other additional follow-up analysis. Faecal samples were collected over a 48 hour period at cage level in week 0, 9, and 21. […] Total body fat and lean body mass were assessed non-invasively by EchoMR1 in week 0, 9, 15, and 21. […] During that time, total body fat and lean body mass were calculated and recorded and the mouse was removed from the apparatus.
Blood glucose was measured immediately using a hand-held glucometer. Total plasma cholesterol and triglyceride levels were measured using kits No. 11489437 and 11488872 (Roche Diagnostics, Almere, The Netherlands), respectively. The plasma levels of insulin (Ultrasensitive mouse insulin ELISA, Merdocia, Uppsala, Sweden) were determined by ELISA. […]

LDLr knockout mice [2] = test: Fasting plasma cholesterol and triglycerides (Examples 1 and 2)
Protocol: as §1
(§2) Blood samples were takes in week 0, 3, 6, 9, 15 and 21 after 5 hours of fasting. Blood glucose was measured using hand-held glucometer immediately. Plasma cholesterol and plasma triglyceride levels were assayed immediately in fresh EDTA-plasma. The remainder of the plasma was stored at −80° C. for analysis of insulin and ALAT, and for possible other additional follow-up analysis. Faecal samples were collected over a 48 hour period at cage level in week 0, 9, and 21. Additionally, individual faecal samples were collected in week 21 to allow individual faecal analysis. Total body fat and lean body mass were assessed non-invasively by EchoMR1 in week 0, 9, 15, and 21. Mice were placed in a constraint tube which was then inserted into the EchoMR1 for a period of approximately 30 seconds. During that time, total body fat and lean body mass were calculated and recorded and the mouse was removed from the apparatus.
Blood glucose was measured immediately using a hand-held glucometer. Total plasma cholesterol and triglyceride levels were measured using kits No. 11489437 and 11488872 (Roche Diagnostics, Almere, The Netherlands), respectively. The plasma levels of insulin (Ultrasensitive mouse insulin ELISA, Merdocia, Uppsala, Sweden) were determined by ELISA.
(§3) Example 2 describes the experimental procedures for evaluating metabolic, and cardiovascular risk factors in LDLr knockout mice fed a HFD supplemented with a >500 Da peptide fraction of the Peptide component. The same experimental procedures and methodologies as employed in Example 1 were used in Example 2.

LDLr knockout mice [3] = test: Body weight and food intake in LDLr knockout mice on high fat diet, 21 weeks (Examples 1 and 2, Study 2)
Text: Both the high fat diet and the tested diets with the peptide component, LCPUFA, and LGG were isocaloric. A control diet (low fat, 10% kcal by fat) served as a reference group. The first study, indicated as Study 1 in Table 3 below, compared the mice on the high fat diet, to mice on a high fat diet supplemented with a combination of the peptide component, LCPUFA, and LGG. Whereas, the second study, indicated as Study 2 in Table 3 below, examined the effects on the mice of the individual ingredients.
Example 1 describes the experimental procedures for evaluating metabolic, and cardiovascular risk factors in LDLr knockout mice fed and HFD and supplemented with a peptide component, LCPUFA, and LGG.
The mice used were LDLr knockout mice, which phenotypically express the main risk factors that are characteristic for metabolic syndrome and that are hallmarks of human disease. Experiments were performed to conform to the rules and regulations set forward by the Netherlands Law on Animal Experiments and were approved by a Committee on Animal Experiments (DEC; approval number 3486).
Sixty-seven male LDLr−/− mice (11-18 weeks of age at the start of the experiment) obtained from the breeding facility at TNO were used. […]

LDLr knockout mice [4] = test: Tissue weights at sacrifice, week 21 (Examples 1 and 2); details: sacrifice after 21 weeks
Protocol: The mice were sacrificed (un-fasted) in week 21. After sacrifice, the following samples were isolated: • Serum Sample by heart puncture • Heart including aortic root (for atherosclerosis analysis) • Aortic arch (thoracic) in −80° C. • Total liver weight, 2 pieces of sinister and caudate lobe in −80° C., medial lobe formalin • Adipose tissue • Sub cutaneous (inguinal): weight, right in −80° C., left in formalin • Epididymal: weight, right in −80° C., left in formalin • Visceral (omental): weight, part in −80° C., part in formalin • Brown adipose tissue weight part in −80° C., part in formalin • Pancreas in −80° C. • Spleen (in formalin) • Kidneys (right in −80° C., left in formalin) • Ileum (last 8 cm before caecum) in −80° C. • Colon (including faeces) in −80° C. • Eyes: left in Davidson formalin, right in −80° C. • Brain (right in −80° C., left in 4% paraformaldehyde
After 21 weeks of dietary treatment, the mice were sacrificed. Tissues were isolated and weighed.
as §3

LDLr knockout mice [5] = test: Liver function marker ALAT in pooled plasma (Examples 1 and 2)
Protocol: as §2
ALAT levels were measured at baseline, week 9 and week 21 in pooled plasma. Baseline levels were low (11 U/L). Upon HFD feeding, ALAT levels increased to 58 U/L in week 9 and further increased to 187 U/L in week 21 in the HFD group. For comparison, ALAT levels in chow fed mice reached levels of approximately 52 U/L in week 21 (data from other study). […] Also ALAT level in LGG treated mice were lower compared to HFD (66 U/L in week 9 and 124 U/L in week 21). […]

LDLr knockout mice [6] = test: Body composition analysis by EchoMRI (Examples 1 and 2); details: absolute values
Protocol: as §2, §3

## Lactobacillus rhamnosus GG [LGG]
LDLr knockout mice [1]; t=9 weeks, temporary drop in HFD control absent in these groups
  Fasting blood glucose, difference to HFD control: significant differences
LDLr knockout mice [1]; week 21 (NHLL, Peptide component), time not stated for LCPUFA, LGG
  Fasting plasma insulin compared to HFD control: comparable to the HFD control group
LDLr knockout mice [2]; NHLL week 9 until week 21, Peptide component all time points
  Plasma triglycerides compared to HFD control: slightly, but not significantly lower compared with HFD control
LDLr knockout mice [2]; throughout the study
  Plasma cholesterol compared to other groups: no significant effects on plasma cholesterol
LDLr knockout mice [2]; week 21
  Plasma triglycerides: 2.0 ± 1.0 mM
LDLr knockout mice [3]; after 21 weeks
  Body weight compared to HFD: slightly, but not significantly lower compared to HFD
LDLr knockout mice [3]; after 21 weeks of HFD feeding
  Body weight: 45.8 ± 5.3 g
LDLr knockout mice [4]
  Liver weight compared to HFD: tended to be lower compared to the HFD
LDLr knockout mice [4]; three depots
  Adipose tissue weights compared to HFD: comparable to HFD
LDLr knockout mice [5]; week 9, pooled plasma
  ALAT: 66 U/L
LDLr knockout mice [5]; week 21, pooled plasma
  ALAT: 124 U/L
LDLr knockout mice [6]
  Total body fat compared to HFD: No effects on total body fat
